{"source": "patent US20050182039A1", "about": "“Use of Loteprednol etabonate for the treatment of dry eye” (Bausch & Lomb Incorporated, priority 2004, published 2005)", "tested_on": "patients with KCS with inflammation", "assay": "four-week topical use of a Loteprednol etabonate ophthalmic formulation in patients with KCS with inflammation", "format": "in vivo, human", "source_text": "U.S. Patent Application. Publication No. 20030008853 discloses 22,29-epoxy-3,4,6,7,29-pentahydroxy-,(3α,4β,5α,6α,7-β,14β,22S)-stigmastan-15-one as useful for treating dry eye disorders and other disorders requiring the wetting of the eye. This publication further notes that corticosteroids, such as prednisolone, dexamethasone, fluoromethalone, hydrocortisone, loteprednol, triamcinolone, etc., cannot be used for prolonged therapy in dry eye patients without causing side effects. This publication further notes that steroid-related complications including increased intraocular pressure and cataract formation have been observed in dry eye patients treated with corticosteroids after several months of therapy.", "data": [{"smiles": "CCOC(=O)O[C@]1(C(=O)OCCl)CC[C@H]2[C@@H]3CCC4=CC(=O)C=C[C@]4(C)[C@H]3[C@@H](O)C[C@@]21C", "note": "[Loteprednol etabonate, (11β,17α),-17-[(Ethoxycarbonyl)oxy]-11-hydroxy-3-oxoandrosta-1,4-diene-17-carboxylic acid chloromethyl ester]", "values": [{"measurement": "treatment effect in subsets of patients with a moderate to severe inflammatory component (more severe KCS)", "setting": "patient subsets with moderate to severe inflammatory component", "value": "differential treatment effect, which was in some cases significant"}, {"measurement": "efficacy in the management of patients with KCS with inflammation", "setting": "used for four weeks", "value": "efficacious"}, {"measurement": "tolerability in the management of patients with KCS with inflammation", "setting": "used for four weeks", "value": "well tolerated"}]}]}
